# Data published in patent US20130244999A1, “Substituted Heterocyclic Compounds” (Incyte Corporation, priority 2008, published 2013).
# Molecular target: T1, histamine H4 receptor (Homo sapiens, UniProt Q9H3N8)
# T1 construct: expressed in transfected cells; host or cells: HEK293SFM cells (membrane preparation)
# Assay: Inhibition of histamine H4 receptor (Table A1; H4 membrane binding assay)
# Conditions: not given
# Summary of the method: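 Radioligand binding was measured by filtration through PEI-treated GF/B filters with scintillation counting, using 1000× unlabeled ligand to define nonspecific binding. Membranes were prepared from HEK293SFM cells recombinantly expressing human H4 in ice-cold 50 mM Tris-HCl, pH 7.5, plus protease inhibitors.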
row,inhibition at 1 µM [%],Structure (SMILES)
1,69,"CCOC(=O)Nc1ccc2c(c1)CN(c1cc(N3CCN(C)CC3)nc(N)n1)CC2 [Example 34, Ethyl {2-[2-amino-6-(4-methylpiperazin-1-yl)pyrimidin-4-yl]-1,2,3,4-tetrahydroisoquinolin-7-yl}carbamate]"
2,66,"CN1CCN(c2cc(N3CCc4ccc(NC(=O)N5CCCCC5)cc4C3)nc(N)n2)CC1 [Example 35, N-{2-[2-Amino-6-(4-methylpiperazin-1-yl)pyrimidin-4-yl]-1,2,3,4-tetrahydroisoquinolin-7-yl}piperidine-1-carboxamide]"
3,79,"CC1Cc2ccc(-c3cnn(C4CCOCC4)c3)cc2CN1c1cc(N2CCN(C)CC2)nc(N)n1 (stereo not drawn) [Example 95B, 4-(4-Methylpiperazin-1-yl)-6-[3-methyl-7-[1-(tetrahydro-2H-pyran-4-yl)-1H-pyrazol-4-yl]-3,4-dihydroisoquinolin-2(1H)-yl]pyrimidin-2-amine]"
4,56,"CC1Cc2ccc(-c3cnn(C4CCS(=O)(=O)C4)c3)cc2CN1c1cc(N2CCN(C)CC2)nc(N)n1 (stereo not drawn) [Example 98B, 4-[7-[1-(1,1-dioxidotetrahydro-3-thienyl)-1H-pyrazol-4-yl]-3-methyl-3,4-dihydroisoquinolin-2(1H)-yl]-6-(4-methylpiperazin-1-yl)pyrimidin-2-amine]"

# Same assay, conditions: histamine H4 receptor; "> a" = exceeds experiment limit
row,IC50 [nM],Structure (SMILES)
1,266,"CN1CCN(c2cc(N3CCc4ccc(N5CCN(C(=O)Nc6ccc(Cl)cc6)CC5)cc4C3)nc(N)n2)CC1 [Example 33, 4-{2-[2-Amino-6-(4-methylpiperazin-1-yl)pyrimidin-4-yl]-1,2,3,4-tetrahydroisoquinolin-7-yl}-N-(4-chlorophenyl)piperazine-1-carboxamide]"
2,393,"CN1CCN(c2cc(N3CCc4ccc(N5CCC(C#N)CC5)cc4C3)nc(N)n2)CC1 [Example 36, 1-{2-[2-Amino-6-(4-methylpiperazin-1-yl)pyrimidin-4-yl]-1,2,3,4-tetrahydroisoquinolin-7-yl}piperidine-4-carbonitrile]"
3,579,"CN1CCN(c2cc(N3CCc4ccc(N5CCC(O)(c6ccccc6)CC5)cc4C3)nc(N)n2)CC1 [Example 37, 1-{2-[2-Amino-6-(4-methylpiperazin-1-yl)pyrimidin-4-yl]-1,2,3,4-tetrahydroisoquinolin-7-yl}-4-phenylpiperidin-4-ol]"
4,186,"CN1CCN(c2cc(N3CCc4ccc(N5CCC(c6ccncc6)CC5)cc4C3)nc(N)n2)CC1 [Example 38, 4-(4-Methylpiperazin-1-yl)-6-[7-(4-pyridin-4-ylpiperidin-1-yl)-3,4-dihydroisoquinolin-2(1H)-yl]pyrimidin-2-amine]"
5,51,"CNC(=O)c1ccc(C2CCN(c3ccc4c(c3)CN(c3cc(N5CCN(C)CC5)nc(N)n3)CC4)CC2)cc1 [Example 39, 4-(1-{2-[2-Amino-6-(4-methylpiperazin-1-yl)pyrimidin-4-yl]-1,2,3,4-tetrahydroisoquinolin-7-yl}piperidin-4-yl)-N-methylbenzamide]"
6,39,"CN1CCN(c2cc(N3CCc4ccc(N5CCC(c6ccc(C(N)=O)cc6)CC5)cc4C3)nc(N)n2)CC1 [Example 40, 4-(1-{2-[2-Amino-6-(4-methylpiperazin-1-yl)pyrimidin-4-yl]-1,2,3,4-tetrahydroisoquinolin-7-yl}piperidin-4-yl)benzamide]"
7,38,"CN1CCN(c2cc(N3CCc4ccc(N5CCC(c6ccn(C)c(=O)c6)CC5)cc4C3)nc(N)n2)CC1 [Example 41, 4-(1-{2-[2-Amino-6-(4-methylpiperazin-1-yl)pyrimidin-4-yl]-1,2,3,4-tetrahydroisoquinolin-7-yl}piperidin-4-yl)-1-methylpyridin-2(1H)-one]"
8,81,"CN1CCN(c2cc(N3CCc4ccc(N5CCC(c6ccc(=O)n(C)c6)CC5)cc4C3)nc(N)n2)CC1 [Example 42, 5-(1-{2-[2-Amino-6-(4-methylpiperazin-1-yl)pyrimidin-4-yl]-1,2,3,4-tetrahydroisoquinolin-7-yl}piperidin-4-yl)-1-methylpyridin-2(1H)-one]"
9,99,"CN1CCN(c2cc(N3CCc4ccc(-c5ccn(C)c(=O)c5)cc4C3)nc(N)n2)CC1 [Example 43, 4-{2-[2-Amino-6-(4-methylpiperazin-1-yl)pyrimidin-4-yl]-1,2,3,4-tetrahydroisoquinolin-7-yl}-1-methylpyridin-2(1H)-one]"
10,93,"CNC(=O)c1ccc(N2CCN(c3ccc4c(c3)CN(c3cc(N5CCN(C)CC5)nc(N)n3)CC4)C(=O)C2)nc1 [Example 44, 6-(4-{2-[2-Amino-6-(4-methylpiperazin-1-yl)pyrimidin-4-yl]-1,2,3,4-tetrahydroisoquinolin-7-yl}-3-oxopiperazin-1-yl)-N-methylnicotinamide]"
11,106,"CNC(=O)c1ncc(-c2ccc3c(c2)CN(c2cc(N4CCN(C)CC4)nc(N)n2)CC3)cc1C [Example 45, 5-{2-[2-Amino-6-(4-methylpiperazin-1-yl)pyrimidin-4-yl]-1,2,3,4-tetrahydroisoquinolin-7-yl}-N,3-dimethylpyridine-2-carboxamide]"
12,173,"Cc1cc(-c2ccc3c(c2)CN(c2cc(N4CCN(C)CC4)nc(N)n2)CC3)cnc1C(=O)N(C)C [Example 46, 5-{2-[2-Amino-6-(4-methylpiperazin-1-yl)pyrimidin-4-yl]-1,2,3,4-tetrahydroisoquinolin-7-yl}-N,N,3-trimethylpyridine-2-carboxamide]"
13,127,"CNC(=O)c1csc(-c2ccc3c(c2)CN(c2cc(N4CCN(C)CC4)nc(N)n2)CC3)n1 [Example 47, 2-{2-[2-Amino-6-(4-methylpiperazin-1-yl)pyrimidin-4-yl]-1,2,3,4-tetrahydroisoquinolin-7-yl}-N-methyl-1,3-thiazole-4-carboxamide]"
14,200,"CN1CCN(c2cc(N3CCc4ccc(-c5nc(C(=O)N6CCCC6)cs5)cc4C3)nc(N)n2)CC1 [Example 48, 4-(4-Methylpiperazin-1-yl)-6-[7-[4-(pyrrolidin-1-ylcarbonyl)-1,3-thiazol-2-yl]-3,4-dihydroisoquinolin-2(1H)-yl]pyrimidin-2-amine]"
15,42,"CNC(=O)c1ccc(-c2ccc3c(c2)CN(c2cc(N4CCN(C)CC4)nc(N)n2)C(C)C3)cn1 (stereo not drawn) [Example 49, 5-{2-[2-Amino-6-(4-methylpiperazin-1-yl)pyrimidin-4-yl]-3-methyl-1,2,3,4-tetrahydroisoquinolin-7-yl}-N-methylpyridine-2-carboxamide]"
16,119,"CC1Cc2ccc(-c3ccc(C(=O)N4CCC(N(C)C)C4)nc3)cc2CN1c1cc(N2CCN(C)CC2)nc(N)n1 (stereo not drawn) [Example 57, 4-[7-(6-{[3-(Dimethylamino)pyrrolidin-1-yl]carbonyl}pyridin-3-yl)-3-methyl-3,4-dihydroisoquinolin-2(1H)-yl]-6-(4-methylpiperazin-1-yl)pyrimidin-2-amine]"
17,144,"CC1Cc2ccc(-c3ccc(C(=O)N4CCN(C)CC4)nc3)cc2CN1c1cc(N2CCN(C)CC2)nc(N)n1 (stereo not drawn) [Example 58, 4-[3-Methyl-7-{6-[(4-methylpiperazin-1-yl)carbonyl]pyridin-3-yl}-3,4-dihydroisoquinolin-2 (1H)-yl]-6-(4-methylpiperazin-1-yl)pyrimidin-2-amine]"
18,54,"CC1Cc2ccc(-c3ccc(C(=O)NCCO)nc3)cc2CN1c1cc(N2CCN(C)CC2)nc(N)n1 (stereo not drawn) [Example 59, 5-{2-[2-Amino-6-(4-methylpiperazin-1-yl)pyrimidin-4-yl]-3-methyl-1,2,3,4-tetrahydroisoquinolin-7-yl}-N-(2-hydroxyethyl)pyridine-2-carboxamide]"
19,108,"CNC(=O)Cn1cc(-c2ccc3c(c2)CN(c2cc(N4CCN(C)CC4)nc(N)n2)C(C)C3)cn1 (stereo not drawn) [Example 79, 2-(4-{2-[2-Amino-6-(4-methylpiperazin-1-yl)pyrimidin-4-yl]-3-methyl-1,2,3,4-tetrahydroisoquinolin-7-yl}-1H-pyrazol-1-yl)-N-methylacetamide]"
20,106,"CC1Cc2ccc(-c3cnn(CC(=O)N(C)C)c3)cc2CN1c1cc(N2CCN(C)CC2)nc(N)n1 (stereo not drawn) [Example 80, 2-(4-{2-[2-Amino-6-(4-methylpiperazin-1-yl)pyrimidin-4-yl]-3-methyl-1,2,3,4-tetrahydroisoquinolin-7-yl}-1H-pyrazol-1-yl)-N,N-dimethylacetamide]"
21,20,"Cc1nc(-c2ccc3c(c2)CN(c2cc(N4CCN(C)CC4)nc(N)n2)C(C)C3)cs1 (stereo not drawn) [Example 116, 4-[3-Methyl-7-(2-methyl-1,3-thiazol-4-yl)-3,4-dihydroisoquinolin-2(1H)-yl]-6-(4-methylpiperazin-1-yl)pyrimidin-2-amine]"
22,43,"CCOc1nc(-c2ccc3c(c2)CN(c2cc(N4CCN(C)CC4)nc(N)n2)C(C)C3)cs1 (stereo not drawn) [Example 117, 4-[7-(2-Ethoxy-1,3-thiazol-4-yl)-3-methyl-3,4-dihydroisoquinolin-2(1H)-yl]-6-(4-methylpiperazin-1-yl)pyrimidin-2-amine]"
23,255,"CC1Cc2ccc(-c3cnn(C)c3)cc2CN1c1cc(N2CC[C@@H](N)C2)nc(N)n1 (stereo partly drawn) [Example 118, 4-[(3R)-3-Aminopyrrolidin-1-yl]-6-[3-methyl-7-(1-methyl-1H-pyrazol-4-yl)-3,4-dihydroisoquinolin-2(1H)-yl]pyrimidin-2-amine]"
24,40,"CC1Cc2ccc(-c3cnn(C)c3)cc2CN1c1cc(N2CCC(N)CC2)nc(N)n1 (stereo not drawn) [Example 120, 4-(4-Aminopiperidin-1-yl)-6-[3-methyl-7-(1-methyl-1H-pyrazol-4-yl)-3,4-dihydroisoquinolin-2 (1H)-yl]pyrimidin-2-amine]"
25,24,"CC1Cc2ccc(-c3cnn(C)c3)cc2CN1c1cc(N2CCNCC2)nc(N)n1 (stereo not drawn) [Example 121, 4-[3-Methyl-7-(1-methyl-1H-pyrazol-4-yl)-3,4-dihydroisoquinolin-2 (1H)-yl]-6-piperazin-1-ylpyrimidin-2-amine]"
26,51,"CC1Cc2ccc(-c3cnn(C)c3)cc2CN1c1cc(N2CCCNCC2)nc(N)n1 (stereo not drawn) [Example 122, 4-(1,4-Diazepan-1-yl)-6-[3-methyl-7-(1-methyl-1H-pyrazol-4-yl)-3,4-dihydroisoquinolin-2(1H)-yl]pyrimidin-2-amine]"
